Data reported in patent US20100311726A1, “REDUCTION OF BETA-AMYLOID LEVELS BY TREATMENT WITH THE SMALL MOLECULE DIFFERENTIATION-INDUCING FACTOR” (priority 2007, published 2010).

Experiments:
Aβ42 = assay: Secreted Aβ42 sandwich ELISA of conditioned media; type: cell-based, human
Protocol: The levels of secreted Aβ from CHO-7W cells stably overexpressing APP^751 and CHO-CAB cells that overexpress APP^751 and human BACE1 was quantified by ELISA and viewed by western blot using the monoclonal anti-APP antibody (6E10) that recognizes residues 1-17 of Aβ. Cells (5×10^5) were deposited into 6-well tissue culture dishes in triplicate and allowed to settle and grow for 24 hours. At this time, the media was aspirated and the cells were washed 2× in warm PBS. Fresh media (2 mL) and media supplemented with vehicle or DIF-1 was added to each well. […] Since DIF-1 exerts a cytostatic effect, the cell number was counted for all treatments upon removal of the conditioned media and used to normalize the levels of Aβ. […] The concentration of Aβ40 and Aβ42 was subsequently detected in triplicate using the β-Amyloid 1-40 or 1-42 Colorimetric ELISA kit (Biosource International, Inc.) according to the manufacturer's instructions.
We then looked at what effect this had on the levels of secreted soluble APP and Aβ production. […] The conditioned media was analyzed using anti-APP antibody 6E10 in order to detect total βP levels and sαAPP levels since it recognizes the amino acids 1-17 of Aβ and thus cannot detect sβAPP. […] The blots were analyzed using a phosphorimager. […]

cyclin D1 = assay: Cyclin D1 level by western blot
Protocol: Following treatment of each cell line with or without DIF-1 (1-30 μM) and/or other inhibitors, cells were lysed in cold RIPA buffer (20 mM Tris-HCl (pH 7.4) buffer containing 150 mM NaCl, 2 mM EDTA, 1% Nonidet® P-40 (NP-40), 50 mM NaF, 1 mM Na3VO4, 1 mM Na2MoO4, 10 mg/ml aprotinin, and 10 mg/ml leupeptin), supplemented with protease inhibitor tablets from Roche (Switzerland). Protein amounts were quantified in triplicate using the BCA assay from Pierce. Equal amounts of protein extracts were fractionated by sodium dodecyl sulfate polyacrylamide gel electrophoresis (SDS-PAGE) and transferred to polyvinylidene difluoride membranes. The membranes were blocked for 1 hour with 5% fat-free powdered milk or 5% BSA, incubated overnight at 4° C. with primary antibodies (1:1000 or 1:5000), washed with TTBS and then incubated at room temperature with appropriate peroxidase-conjugated secondary antibodies (1:5000). Blots were repeatedly washed with TTBS and target proteins were detected using an enhanced chemiluminescence (ECL) system (Amersham Pharmacia Biotech, New Jersey, USA) and XOMAT™ Kodak® film.
Densitometry analysis of western blot data was performed on a PC computer using QuantityOne® software obtained from Bio-Rad® Laboratories, Inc. (California, USA). Loading variations between western blot lanes were normalized according to the GAPDH signal prior to any experimental quantification. Each western blot presented in the figures is representative of at least five independent experiments to ensure reproducibility of the results unless noted otherwise.
CHO-CAB cells were treated with lithium chloride (10mM). […] To ensure that the results observed were due to proteasome inhibition, we assessed the effects of lactacystin and ALLN on cyclin D1 levels. […] The data represents that of three separate experiments.

CHO-7W cells = assay: Flow cytometry cell cycle distribution, CHO-7W; type: cell-based, Chinese Hamster; details: 25 μM
Protocol: (§1) Naïve and CHO-7W cells were collected by trypsin/EDTA treatment and counted using a haemocytometer. The cells (1×10^5) were deposited into 10 cm tissue culture dishes containing fresh media and grown for 24 hours prior to DIF-1 treatment (25 μM). Cells were grown in the presence of DIF-1 for approximately 20 hours. Cells harvested by the trypsin/EDTA treatment were suspended in hypotonic fluorochrome solution containing 50 ug/ml of propidium iodide, 0.1% sodium citrate, and 0.1% Triton X-100. Cells (5×10^4) for each sample were analyzed for fluorescence using the Massachusetts General Hospital cytology core. Cell cycle distribution was compared between vehicle and DIF-1 treated nave CHO cells, and CHO-7W cells. The percentage of cells in G0/G1, S-phase and G2/M represents the mean cell number±the standard deviation from at least 3 separate experiments.
CHO/APP cells were incubated with DIF-1 (25 μM) for the indicated periods and then harvested, fixed and stained with propidium iodide (PI) and fluorescence of nuclei was measured. Histogram peaks are labeled by phases. The percentages of cell number in the cell cycle phases are shown as means+/−S.E. of three independent experiments performed in duplicate. The effects of DIF-1 on CHO-7W cell growth is also a result of G0/G1 cell cycle block (50.1%±1.1) as measured by flow cytometry (FIG. 2B).

naïve CHO cells = assay: Flow cytometry cell cycle distribution, naive CHO; type: cell-based, Chinese Hamster; details: 25 μM overnight
Protocol: as §1
To determine where in the cell cycle DIF-1 acts, we assessed the cell cycle distribution of naïve CHO cells using flow cytometry (FIG. 1B). CHO cells were incubated with DIF-1 (25 μM) for the indicated periods and then harvested by the trypsin/EDTA treatment, fixed and stained with propidium iodide (PI) and fluorescence of nuclei was measured. Histogram peaks are labeled by phases (G0/G1, S and G2/M). The percentages of cell number in the cell cycle phases are shown as means+/−S.E. of three independent experiments performed in duplicate. […]

CHO cells = assay: Cell viability (trypan blue exclusion) and apoptosis (caspase-3); type: cell-based
Description: For proliferation assays, 1×10^4 cells were deposited into 24-well plates and treated with vehicle (ethanol or DMSO) or with various amounts of DIF-1 or DIF-3 for a period of 4 days. Cells were harvested after each day by trypsin/EDTA treatment, stained with an equal volume of 0.05% Trypan blue and enumerated in triplicate twice using a haemocytometer. Dead cells are stained blue, but live cells with intact cell membranes are not coloured. Data represents the mean cell number±the standard deviation for at least 3 separate experiments.
Cells were harvested by the trypsin/EDTA treatment at the times indicated and counted with a haemocytometer.

## CCCCCC(=O)c1c(O)c(Cl)c(OC)c(Cl)c1O [DIF-1, 1-[3,5-dichloro-2,6-dihydroxy-4-methoxyphenyl]-1-hexanone]
Aβ42; CHO-7W, 30 μM overnight
  reduction of secreted Aβ42: 63.9±7.15%
Aβ42; conditioned media from either CHO-7W or CHO-CAB cells
  reduction of secreted levels of Aβ42: 66.9±2.6%
Cyclin D1; 30 μM, 18-20 hours, CHO-CAB cells and mouse embryonic fibroblasts
  reduction of cyclin D1 level: ~82.56±0.74%
Cyclin D1; CHO-7W, 30 μM DIF-1 or 250 nM DAPT
  effect on cyclin D1 level: markedly decreased
Cyclin D1; CHO-CAB
  effect on cyclin D1 accumulation, co-treatment with lactacystin or ALLN: inhibited the accumulation of cyclin D1
CHO-7W cells
  G0/G1 cell cycle block (percentage of cells): 50.1%±1.1
naïve CHO cells
  percentage of cells in G0/G1: 52.6%±0.9
CHO cells
  cell adhesion, cell shape, apoptosis (caspase-3 activation): did not effect cell adhesion, cell shape or induce apoptosis
CHO cells; any of the cell lines tested
  effect on cell viability (trypan blue exclusion): no observable effect on cell viability
